From paper PMC10743564, “Acceleration of Protein Degradation by 20S Proteasome-Binding Peptides Generated by In Vitro Artificial Evolution” (International Journal of Molecular Sciences, 2023)
Where no end group is shown, it is not given here. BAED = biotinylated photoreactive group derived from Sulfo-SBED

Columns and labels:
[1] = target: T1, intracellular proteasomes of U251 cells (Homo sapiens, UniProt P25787+P60900); assay: Intracellular proteasome CT-L activity (Proteasome-Glo) in U251 cells; format: cell-based
T1 construct: endogenous in cells; host or cells: U251, RPMI8226, SH-SY5Y
Procedure: Intracellular proteasome activity was measured using the Proteasome-Glo Assay reagent (Promega Co.) according to the manufacturer’s protocol [46].

U251 cells = assay: Cell growth inhibition assay (CellTiter-Glo); format: cell-based, human
Procedure: The U251 cell line was kindly provided by Prof. Koji Kawakami (Kyoto University). RPMI8226 and SH-SY5Y cell lines were obtained from RIKEN BRC Cell Bank (Chiba, Japan). U251 and RPMI8226 cells were grown and maintained in RPMI1640 medium (Nacalai Tesque Inc.) supplemented with 10% fetal bovine serum, 100 units/mL penicillin, and 100 μg/mL streptomycin at 37 °C in 5% CO2. SH-SY5Y cells were grown and maintained in DMEM medium (Nacalai Tesque Inc.) supplemented with 10% fetal bovine serum, 100 units/mL penicillin, and 100 μg/mL streptomycin at 37 °C in 5% CO2.
U251, RPMI8226, or SH-SY5Y cells were seeded in triplicate wells in a 96-well plate at a density of 5 × 10^3 cells/well and incubated with various concentrations (0.1–100 µM) of inhibitory compounds dissolved in DMSO for 24 or 48 h. The amount of intracellular ATP was determined by CellTiter-Glo Luminescent Cell Viability Assay (Promega Co.) according to the manufacturer’s protocol. Intracellular proteasome activity was measured using the Proteasome-Glo Assay reagent (Promega Co.) according to the manufacturer’s protocol.

26S holoenzyme = 26S holoenzyme (Homo sapiens, UniProt P25787+P60900); assay: Photoaffinity labeling of 26S holoenzyme; format: binding; conditions: after UV irradiation
Procedure: (§1) The reaction mixture was exposed to UV light (365 nm) for 30 min on ice, and proteins were separated by SDS-PAGE, transferred onto a polyvinylidene difluoride membrane (ATTO Co., Ltd., Tokyo, Japan), and probed with horseradish peroxidase-conjugated streptavidin (Cytiva, Danaher Co., Washington, DC, USA). Chemiluminescence images were obtained using an ImageQuant LAS-4000 instrument (Cytiva). Isoelectric focusing for 2D-PAGE was performed using a DiscRun AE-6541 apparatus (ATTO Co., Ltd.) according to the manufacturer’s protocol. To identify the subunits of the 20S CP by LC-MS analysis, all bands visible following CBB staining were excised, dehydrated with acetonitrile for 10 min, and centrifuged in vacuo to dryness. Dried samples were placed in trypsin solution, and hydrolysis was carried out at 37 °C for 16 h. Reaction products were recovered using 0.1% formic acid and analyzed by LC-MS-IT-TOF (Shimadzu Corporation, Kyoto, Japan) and Mascot Version 2.4 (Matrix Science, London, UK).

human 20S proteasome = human 20S proteasome (Homo sapiens, UniProt P25787+P60900); assay: Photoaffinity labeling of 20S CP; format: binding; conditions: UV 365 nm, 2D-PAGE, LC-MS identification
Procedure: After the reaction, the product was purified by reversed-phase HPLC, and molecular weight was confirmed by mass spectrometry, as described above.
as §1

Molecule | Effect on CT-L activity of intracellular proteasomes (in words) [1] | Cell death (in words) (U251 cells) | Photoaffinity labeling of 26S holoenzyme (in words) (26S holoenzyme) | Photoaffinity-labeled subunits of 20S CP (human 20S proteasome)
CC(C)C[C@H](NC(=O)[C@H](Cc1ccccc1)NC(=O)c1cnccn1)B(O)O [bortezomib] | did not increase CT-L activity to the same degree | induced cancer cell death |  | 
BAED-20S-BP1(5-12): photoreactive biotinylated peptide: 20S-BP1(5-12) with N-terminal BAED group, made with Sulfo-SBED ({BAED}-SRLRHWWR) |  |  | no detectable labeling | α1 and β4 subunits
